For one assay, the target named is Neuraminidase (Influenza A virus, UniProt B4URF0).
Sequence of Neuraminidase (B4URF0 whole entry): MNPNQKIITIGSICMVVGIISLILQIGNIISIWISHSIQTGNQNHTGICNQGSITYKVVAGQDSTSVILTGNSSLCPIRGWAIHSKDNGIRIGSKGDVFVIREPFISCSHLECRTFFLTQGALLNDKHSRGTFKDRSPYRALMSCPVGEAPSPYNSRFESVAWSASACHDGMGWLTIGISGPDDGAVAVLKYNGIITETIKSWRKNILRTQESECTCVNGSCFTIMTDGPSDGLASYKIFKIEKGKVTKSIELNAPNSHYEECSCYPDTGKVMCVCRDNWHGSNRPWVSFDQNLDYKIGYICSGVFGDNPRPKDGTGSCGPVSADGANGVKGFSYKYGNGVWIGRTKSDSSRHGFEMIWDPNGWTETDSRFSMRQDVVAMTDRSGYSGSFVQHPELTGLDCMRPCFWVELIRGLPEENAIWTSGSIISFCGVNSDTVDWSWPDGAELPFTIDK
As usually defined, the IC50 is the concentration at which inhibition is half-maximal. A higher IC50 goes with weaker potency in that assay. On to `O=C(NCCCN1CCOCC1)C(=O)N/N=C/c1ccccc1O`, for which the 50% inhibitory concentration (IC50) was 6.48 µM.
Same read-out and setting: the result for `COc1cc(/C=N/NC(=O)C(=O)NCCCN2CCOCC2)ccc1O` reads 4.67 µM.
Same read-out and setting: then `O=C(NCCCN1CCOCC1)C(=O)N/N=C/c1ccc(O)c([N+](=O)[O-])c1`, with 4.37 µM.
Same read-out and setting: the result for `COc1ccccc1/C=N/NC(=O)C(=O)NCCCN1CCOCC1` reads 7.1 µM; that for `COc1cc(/C=N/NC(=O)C(=O)NCCCN2CCOCC2)cc(OC)c1OC`, 2.61 µM.
Regarding `COc1ccc(/C=N/NC(=O)C(=O)NCCCN2CCOCC2)cc1OC`, inhibition was half-maximal at 2.37 µM (IC50).
The same measure, in the same setting: then `COc1cc(/C=N/NC(=O)C(=O)NCCCN2CCOCC2)cc(OC)c1O`, with 3.15 µM.

System in another assay: not listed separately
Briefly: Inhibition of influenza virus A/WSN/1933 (H1N1) neuraminidase using MUNANA as substrate preincubated for 10 mins followed by substrate addition and measured for 15 mins by fluorescence assay. The arrangement: species or system Influenza A virus ([…]).
With `CC(=O)N[C@H]1[C@H]([C@H](O)[C@H](O)CO)OC(P(=O)(O)O)=C[C@@H]1NC(=N)N`, the midpoint of inhibition, the IC50, lay at 0.0006 µM.

Source of the values: ChEMBL document CHEMBL4346719, “Discovery of novel acylhydrazone neuraminidase inhibitors” (Eur J Med Chem, 2019).
